Measurements reported in PubChem BioAssay AID180 (DTP/NCI, 2004).
“And” between values parts separate entries of the source, which are not always exact repeats. Identical values can stand only once.

Test system: BDF1 mice, Adenocarcinoma 755 s.c., tumor weight T/C
Assay: NCI In Vivo Anticancer Drug Screen. Data for tumor model Adenocarcinoma 755 (subcutaneous) in B6D2F1 (BDF1) mice
Settings: endpoint: mean tumor weight, higher = larger tumour
How it was run: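 Compound activity was tested in mice carrying transplanted tumors. Survival or tumor size was measured, and each value is the treated-group measurement divided by that of the vehicle-treated control group (T/C).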

[1] = dose: 200.0 mg/kg/injection, schedule: Q01DX011 (ip), vehicle: saline
[2] = dose: 240.0 mg/kg/injection, schedule: Q01DX011 (ip), vehicle: carboxymethylcellulose (CMC)
[3] = dose: 15.0 mg/kg/injection, schedule: Q01DX011 (ip), vehicle: methylcellulose (MC)

Compound: CNC=O
- T/C (dose: 4.41 mg/kg/injection, schedule: Q01DX011 (ip), vehicle: carboxymethylcellulose (CMC)): 107 % of control
- T/C (dose: 8.82 mg/kg/injection, schedule: Q01DX011 (ip), vehicle: carboxymethylcellulose (CMC)): 94 % of control
- T/C (dose: 17.65 mg/kg/injection, schedule: Q01DX011 (ip), vehicle: carboxymethylcellulose (CMC)): 110 % of control
- T/C (dose: 42.88 mg/kg/injection, schedule: Q01DX011 (ip), vehicle: carboxymethylcellulose (CMC)): 60 % of control
- T/C (dose: 45.0 mg/kg/injection, schedule: Q01DX011 (ip), vehicle: carboxymethylcellulose (CMC)): 113 % of control
- T/C (dose: 85.75 mg/kg/injection, schedule: Q01DX011 (ip), vehicle: carboxymethylcellulose (CMC)): 78 % of control
- T/C (dose: 90.0 mg/kg/injection, schedule: Q01DX011 (ip), vehicle: carboxymethylcellulose (CMC)): 99 % of control
- T/C (dose: 93.67 mg/kg/injection, schedule: Q01DX011 (ip), vehicle: carboxymethylcellulose (CMC)): 104 % of control
- T/C (dose: 137.2 mg/kg/injection, schedule: Q01DX011 (ip), vehicle: carboxymethylcellulose (CMC)): 70 % of control
- T/C (dose: 144.0 mg/kg/injection, schedule: Q01DX011 (ip), vehicle: carboxymethylcellulose (CMC)): 86 % of control
- T/C (dose: 180.0 mg/kg/injection, schedule: Q01DX011 (ip), vehicle: carboxymethylcellulose (CMC)): 98 % of control
- T/C (dose: 187.35 mg/kg/injection, schedule: Q01DX011 (ip), vehicle: carboxymethylcellulose (CMC)): 100 % of control and 111 % of control
- T/C [1]: 31 % of control
- T/C (dose: 228.6 mg/kg/injection, schedule: Q01DX011 (ip), vehicle: carboxymethylcellulose (CMC)): 65 % of control
- T/C [2]: 101 % of control
- T/C (dose: 250.0 mg/kg/injection, schedule: Q01DX011 (ip), vehicle: saline): 14 % of control
- T/C (dose: 300.0 mg/kg/injection, schedule: Q01DX011 (ip), vehicle: saline): 1 % of control
- T/C (dose: 343.0 mg/kg/injection, schedule: Q01DX011 (ip), vehicle: carboxymethylcellulose (CMC)): 20 % of control and 30 % of control
- T/C (dose: 360.0 mg/kg/injection, schedule: Q01DX011 (ip), vehicle: carboxymethylcellulose (CMC)): 30 % of control and 35 % of control
- T/C (dose: 374.7 mg/kg/injection, schedule: Q01DX011 (ip), vehicle: carboxymethylcellulose (CMC)): 103 % of control

Compound: CC(C)n1cnc2c(Cl)ncnc21
- T/C (dose: 4.0 mg/kg/injection, schedule: Q01DX011 (ip), vehicle: carboxymethylcellulose (CMC)): 101 % of control
- T/C (dose: 8.0 mg/kg/injection, schedule: Q01DX011 (ip), vehicle: carboxymethylcellulose (CMC)): 115 % of control
- T/C (dose: 16.0 mg/kg/injection, schedule: Q01DX011 (ip), vehicle: carboxymethylcellulose (CMC)): 92 % of control
- T/C (dose: 62.0 mg/kg/injection, schedule: Q01DX011 (ip), vehicle: carboxymethylcellulose (CMC)): 4 % of control and 11 % of control
- T/C (dose: 125.0 mg/kg/injection, schedule: Q01DX011 (ip), vehicle: carboxymethylcellulose (CMC)): 5 % of control and 8 % of control
- T/C (dose: 250.0 mg/kg/injection, schedule: Q01DX011 (ip), vehicle: carboxymethylcellulose (CMC)): 8 % of control

Compound: Clc1ncnc2c1ncn2C1CCCCO1 (stereo not drawn)
- T/C (dose: 31.0 mg/kg/injection, schedule: Q01DX011 (ip), vehicle: other): 72 % of control
- T/C (dose: 62.0 mg/kg/injection, schedule: Q01DX011 (ip), vehicle: other): 7 % of control

Compound: CN(C)[C@@H]1C(=O)C(C(=O)NCNc2nc3n[nH]nc3c(=O)[nH]2)=C(O)[C@@]2(O)C(=O)C3=C(O)c4c(O)cccc4[C@@](C)(O)[C@H]3C[C@@H]12
- T/C (dose: 25.0 mg/kg/injection, schedule: Q01DX011 (ip), vehicle: saline): 89 % of control
- T/C (dose: 50.0 mg/kg/injection, schedule: Q01DX011 (ip), vehicle: saline): 93 % of control
- T/C (dose: 100.0 mg/kg/injection, schedule: Q01DX011 (ip), vehicle: saline): 79 % of control
- T/C [1]: 40 % of control

Compound: CCc1c(Cl)nc(N)nc1Nc1ccccc1Cl
- T/C [3]: 105 % of control
- T/C (dose: 62.0 mg/kg/injection, schedule: Q01DX011 (ip), vehicle: methylcellulose (MC)): 103 % of control
- T/C (dose: 125.0 mg/kg/injection, schedule: Q01DX011 (ip), vehicle: methylcellulose (MC)): 101 % of control

Compound: CCCn1cnc2c(SCCc3ccccc3)nc(N)nc21
- T/C (dose: 50.0 mg/kg/injection, schedule: Q01DX011 (ip), vehicle: methylcellulose (MC)): 47 % of control
- T/C (dose: 100.0 mg/kg/injection, schedule: Q01DX011 (ip), vehicle: methylcellulose (MC)): 15 % of control
- T/C (dose: 200.0 mg/kg/injection, schedule: Q01DX011 (ip), vehicle: methylcellulose (MC)): 18 % of control

Compound: NS(=O)(=O)c1nc2nc[nH]c(=O)c2[nH]1
- T/C (dose: 30.0 mg/kg/injection, schedule: Q01DX011 (ip), vehicle: carboxymethylcellulose (CMC)): 113 % of control
- T/C (dose: 60.0 mg/kg/injection, schedule: Q01DX011 (ip), vehicle: carboxymethylcellulose (CMC)): 163 % of control
- T/C (dose: 120.0 mg/kg/injection, schedule: Q01DX011 (ip), vehicle: carboxymethylcellulose (CMC)): 104 % of control
- T/C [2]: 113 % of control

Compound: CC(=O)Nc1nc(SCc2ccccc2)c2ncn(C(C)=O)c2n1
- T/C (dose: 7.5 mg/kg/injection, schedule: Q01DX011 (ip), vehicle: methylcellulose (MC)): 53 % of control
- T/C [3]: 4 % of control
- T/C (dose: 30.0 mg/kg/injection, schedule: Q01DX011 (ip), vehicle: methylcellulose (MC)): 2 % of control

Compound: C[C@]12CC[C@H](O)C[C@H]1CC[C@@H]1[C@@H]2CC[C@]2(C)[C@@H](C3=CC(=O)OC3)[C@@H](O)C[C@]12O
- T/C (dose: 3.0 mg/kg/injection, schedule: Q01DX011 (sc), vehicle: steriod suspending solution): 91 % of control
- T/C (dose: 25.0 mg/kg/injection, schedule: Q01DX011 (sc), vehicle: steriod suspending solution): 80 % of control
- T/C (dose: 50.0 mg/kg/injection, schedule: Q01DX011 (sc), vehicle: steriod suspending solution): 110 % of control
